# Test results: US20110177180A1, “HERBAL COMPOSITION AND METHOD FOR THE TREATMENT OF VIRAL INFECTION” (PIRAMAL LIFE SCIENCES LIMITED, priority 2008, published 2011)
# What was measured:
# HSV-2 [1] = assay: CPE inhibition assay - crystal violet staining method; type: cell-based; settings: Human alphaherpesvirus 2; 25 μg/mL; Vero cells, HSV-2 100 TCID50, 48 hours
# Procedure: The assay was designed to detect agents (in this case, the extracts) acting at any stage of the virus reproductive cycle. The assay was done as reported in Indian J. Med. Res., 2004, 120:24-29.
# Vero cells (obtained in step 1 of Example 10) were propagated at a density of 1×10^4 cells/well in 96 well plate and incubated at 37° C. in a CO2 incubator for 24 hours to form a monolayer. […] Appropriate controls were included such as Vero cells alone (cell control), Vero cells with virus (virus control) and Vero cells with virus and the standard compound acyclovir. Acyclovir was checked at the following concentrations (DMSO stock of 20 mg/mL of acyclovir was diluted to 100 μg/mL with DMEM containing 2% FBS): 25 μg/mL, 3.125 μg/mL, 1.56 μg/mL and 0.78 μg/mL and 0.39 μg/mL. After one hour, cells were infected with a multiplicity of infection (moi) of 100 TCID50 of viral dose per well using viral stock obtained in step 2 of Example 10. The infected cells were incubated with maintenance medium (DMEM with 2% FBS) for another 48 hours. […] The staining solution was aspirated out and the plates rinsed using distilled water until all excess stain was washed away. The plates were allowed to dry for 24 hours. CPE was evaluated visually, after staining the plaques, and microscopically and graded according to the percentage of CPE inhibition as compared to controls. […]
# HSV-2 [2] = assay: Mouse vaginal model of HSV-2 infection (Example 14); type: in vivo, BALB/c mice; settings: 75 mg/kg in PBS intravaginal, three times a day for 5 days; 5×10^3 pfu; 21 days
# Procedure: The assay was done as reported in Antiviral Research, 2006, 69:77-85.
# (§1) Female BALB/c mice of eight weeks age and body weight 18-20 g were used for intravaginal (IVAG) challenge (vaginal inoculation) with the virus (using viral stock of step 2 of example 10). Five days prior to the IVAG challenge, mice were injected subcutaneously (SC) with 2 mg of progesterone (Depo-Provera®; Pfizer, Belgium) in the upper back, using a 29-gauge needle. On the day of challenge, mice were anesthetized with Ketamine (150 mg/kg) and Xylazine (10 mg/kg) by intraperitoneal injection. Mice were inoculated intravaginally with 5×10^3 pfu of the virus using a micropipette in a total volume of 20 μL DMEM. […] Each group had ten animals. Animals were treated three times a day with the treatment intervals of 4 hours for 5 days. 20 μL of the above samples were injected into the vaginal vault using micropipette.
# The animals were assessed daily for survival and extravaginal disease signs through 21 days of post inoculation (PI). […]
# HSV-2 [3] = assay: Mouse vaginal model of HSV-2 infection (Example 15); type: in vivo, BALB/c mice; settings: 225mg/kg
# Procedure: as §1
# The animals were assessed daily for survival and extravaginal disease signs through 21 days of post inoculation (PI). The severity of the viral disease (extravaginal signs of disease) was quantified using a well-established lesion score scale, also known as five-point scale as follows: • 0: no apparent infection; • 1: few isolated papules and slight redness of extravaginal tissue; • 2: few isolated papules, ulcers, and/or eschar and/or swelling and redness of extravaginal tissue; • 3: multiple fused ulcers/eschars, moderate swelling and redness of extravaginal tissue with extension to surrounding tissue; • 4: ulceration with severe redness and swelling of extravaginal tissue with extension to surrounding tissue, rear leg paralysis; and • 5: severe ulceration of extravaginal tissue with extension to surrounding tissue, weight loss, rear leg paralysis and death.
# The assay was performed as mentioned in Example 14 with modifications as mentioned below: • (i) Mice were inoculated intravaginally with 2×10^4 pfu of the virus instead of 5×10^3 pfu in Example 14. • (ii) Evaluation was done by topical application of the formulations (Formulation I, Formulation II and Formulation III) instead of injection of extracts into vaginal vault of the animals in Example 14. • (iii) One more group of animals was studied: “infection control group” in which the mice were inoculated with the virus but were not treated.
# Extract of Example 1 (dissolved in PBS) was injected into the vaginal vault using micropipette. Formulation I, Formulation II and Formulation III were applied topically (25 mg) thrice daily for a 5 day period. 25 mg of Formulation IB, IIB or IIIB correspond to 375 mg/kg dose; 25 mg of Formulation IC, IIC or IIIC correspond to 750 mg/kg dose and 25 mg of Formulation ID, IID and IIID correspond to 1500 mg/kg dose evaluated in the animals.
# [4] = positive control in evaluation of Formulation I
# [5] = positive control in evaluation of Formulation II
# [6] = positive control in evaluation of Formulation III
# [7] = positive control in evaluation of extract of Example 1
structure (smiles),measurement,setting,value
Nc1nc2c(ncn2COCCO)c(=O)[nH]1 [Acyclovir],inhibition at 25 µg/mL,HSV-2 [1],76 to 100%
same,deaths during the experiment,HSV-2 [2],None of the mice died during the experiment
same,signs of extravaginal disease,HSV-2 [2],None of the mice showed signs of extravaginal disease
same,extravaginal disease,HSV-2 [3]; [4],None of the mice showed extravaginal disease
same,survival rate,HSV-2 [3]; [4],100%
same,course of extravaginal disease,HSV-2 [3]; [5],continued till day 21
same,day on which extravaginal disease appeared,HSV-2 [3]; [5],18 days
same,survival rate,HSV-2 [3]; [5],100%
same,extravaginal disease,HSV-2 [3]; [6],None of the mice showed extravaginal disease
same,survival rate,HSV-2 [3]; [6],100%
same,extravaginal disease,HSV-2 [3]; [7],None of the mice showed extravaginal disease
same,survival rate,HSV-2 [3]; [7],100%
